Source: patent publication US11274332B2, “Methods of administering 3,4-diaminopyridine” (SERB SA, priority 2011, dated 2022)

Experiment: Example 18: safety and tolerability in slow and fast acetylators
Type: in vivo, human
Description: The primary objective of the study was to assess the safety and tolerability of 3,4-DAP phosphate after single and multiple doses. The secondary objectives of the study were • Part 1 only: To determine the dose-related PK profile of amifampridine and of 3-N-acetyl amifampridine after single, escalating doses of 3,4-DAP phosphate • Part 2 only: To assess the steady-state plasma PK and accumulation of amifampridine and of 3-N-acetyl amifampridine over multiple days of dosing with 3,4-DAP phosphate An exploratory objective was to examine the overall activity of the N-acetyl transferase enzymes on the metabolism of amifampridine by assessing the PK of amifampridine and 3-N-acetyl amifampridine with phenotypic acetylation activity and genotyping determination of NAT2 gene polymorphisms. Study Design and Plan
Part 1 was a dose-proportionality study in 12 healthy subjects each receiving 4 ascending single oral doses of 3,4-DAP phosphate in a sequential manner (5 mg, 10 mg, 20 mg, and 30 mg). For all 12 subjects, the first 3 doses of oral 3,4-DAP phosphate (5-20 mg) were administered on 3 consecutive days (Days 1-3). Two fast and two slow acetylators (as defined by a caffeine challenge test in Example 15a) were selected as the first 4 enrolled subjects (sentinel subjects). For the 2 fast acetylators the 30 mg dose was administered on Day 4. […] Safety and tolerability data collected for all 4 subjects were reviewed and the safety and tolerability results of the 30 mg dose for these 4 sentinel subjects were acceptable. The 30 mg dose was given to the remaining 8 non-sentinel subjects on Day 7. Sentinel and non-sentinel subjects were released from the clinic on Day 5, Day 6, and Day 8 respectively, with all subjects returning for follow-tip assessments 2-4 days following their last dose.
Part 2, Group 1: Four sentinel subjects were selected after determining their acetylator status. Two were fast acetylators and two were slow acetylators. All four were dosed on Day 1 with 4 oral doses of 20 mg of 34-DAP phosphate (given at 4-hour dosing intervals). On Days […] and 2, safety and tolerability data was collected. Subjects left the clinic on Day 2. The safety and tolerability data collected for these 4 sentinel subjects were reviewed. The safety and tolerability results of Days 1 and 2 for these subjects were acceptable and thus Part 2 Group 2 was commenced. Minimally acceptable safety was defined as the absence of clinical seizure activity. Subjects in Group 1 returned to the clinic for their follow-up assessments 2-4 days following their last dose.
Each subject was given a final morning dose of 20 mg 3,4-DAP phosphate on Day 4. Subjects in Group 2 returned to the clinic for their follow-up assessments 2-4 days following their last dose.
Safety assessments: During the assessment period, the following safety measures were evaluated: vital signs, adverse events (AEs), 12-lead ECG, EEG and clinical laboratory tests.
Safety: Safety was assessed by the incidence of AEs, as well as changes in vital signs, 12-lead ECG, EEG, and clinical laboratory evaluations.
Safety: All subjects who received any amount of study drug in either Part 1 or Part 2 of this study and had post-dose safety information were included in the safety analyses. Safety was evaluated separately for Part 1 and Part 2 and was summarized by dose levels where appropriate. All verbatim AE terms were coded using Medical Dictionary for Regulatory Activities (MedDRA) terminology. Only treatment-emergent AEs (i.e., AEs with a start date on or after the first dose of study drug) were summarized. The incidence of AEs and SAEs were summarized for each study part by dose level, system, organ, class, preferred term, relationship to study drug, and severity. No deaths during the study, no discontinuations of study drug, and no withdrawals from the study and study drug due to an AE were observed.

For `Nc1ccncc1N.O=P(O)(O)O` [amifampridine phosphate, 3,4-diaminopyridine phosphate], the seizures (Part 1, 30 mg dose, sentinel subjects) was “No seizures were seen”, the “phenotype in which drug-related adverse events were observed” value (Part 1, single doses 5-30 mg) was “observed in slow acetylators only” and the “drug-related adverse events: % of subjects” value (Part 2, fast acetylators (7)) was 43%. For the same molecule, the “drug-related adverse events: events” value (Part 2, fast acetylators (7)) was “six”, the “drug-related adverse events: subjects” value (Part 2, fast acetylators (7)) was 3 and the “drug-related adverse events: % of subjects” value (Part 2, slow acetylators (7)) was 86%. For the same molecule, the “drug-related adverse events: events” value (Part 2, slow acetylators (7)) was “Forty-five”, the “drug-related adverse events: subjects” value (Part 2, slow acetylators (7)) was 6 and the seizures (Part 2 Group 1, 20 mg x 4 on Day 1) was “No seizures occurred”. The serious adverse events (Parts 1 and 2) was “no serious adverse events” and the “severity of treatment-emergent adverse events” value (Parts 1 and 2) was “mild and transient”.
